# From PubChem BioAssay (NCI)
#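 Exposure lasted 48 hours, with cells grown in 96-well plates and compounds tested at five concentrations. TGI: total growth inhibition.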
# Experiments:
# Assay in all cases: NCI anticancer screen, dose series, 48 h
# [1] = test system: 786-0 renal
# [2] = test system: A549 NSCLC
# [3] = test system: ACHN renal
# [4] = test system: CAKI-1 renal
# [5] = test system: DMS 114 small cell lung
# [6] = test system: EKVX NSCLC
# [7] = test system: HCC-2998 colon
# [8] = test system: HCT-116 colon
# [9] = test system: HCT-15 colon
# [10] = test system: HL-60(TB) leukemia
# [11] = test system: HOP-62 NSCLC
# [12] = test system: HOP-92 NSCLC
# [13] = test system: IGROV1 ovarian
# [14] = test system: K-562 leukemia
# [15] = test system: KM12 colon
# [16] = test system: KM20L2 colon
# [17] = test system: LOX IMVI melanoma
# [18] = test system: LXFL 529 NSCLC
# [19] = test system: M14 melanoma
# [20] = test system: MALME-3M melanoma
# [21] = test system: MOLT-4 leukemia
# [22] = test system: NCI-H226 lung
# [23] = test system: NCI-H23 lung
# [24] = test system: OVCAR-3 ovarian
# [25] = test system: OVCAR-4 ovarian
# [26] = test system: OVCAR-5 ovarian
# [27] = test system: RXF 393 renal
# [28] = test system: SF-268 CNS
# [29] = test system: SK-MEL-2 melanoma
# [30] = test system: SK-MEL-5 melanoma
# [31] = test system: SK-OV-3 ovarian
# [32] = test system: SN12C renal
# [33] = test system: SNB-19 CNS
# [34] = test system: SNB-75 CNS
# [35] = test system: SNB-78 CNS
# [36] = test system: SW-620 colon
# [37] = test system: TK-10 renal
# [38] = test system: U251 CNS
# [39] = test system: UACC-62 melanoma
# [40] = test system: UO-31 renal
# [41] = test system: A498 renal
# [42] = test system: BT-549 breast
# [43] = test system: CCRF-CEM leukemia
# [44] = test system: COLO 205 colon
# [45] = test system: DU-145 prostate
# [46] = test system: HS 578T breast
# [47] = test system: HT29 colon
# [48] = test system: MCF7 breast
# [49] = test system: MDA-MB-231 breast
# [50] = test system: MDA-MB-435
# [51] = test system: MDA-N
# [52] = test system: NCI-H460 lung
# [53] = test system: NCI-H522 lung
# [54] = test system: NCI/ADR-RES ovarian
# [55] = test system: OVCAR-8 ovarian
# [56] = test system: PC-3 prostate
# [57] = test system: RPMI-8226 leukemia
# [58] = test system: SF-295 CNS
# [59] = test system: SF-539 CNS
# [60] = test system: SK-MEL-28 melanoma
# [61] = test system: SR leukemia
# [62] = test system: T-47D breast
# [63] = test system: UACC-257 melanoma
compound,measurement,setting,value
Cc1ccccc1C(=O)C1CCCCC1O (stereo not drawn),TGI,[1],> 100 µM
same,TGI,[2],> 100 µM
same,TGI,[3],> 100 µM
same,TGI,[4],> 100 µM
same,TGI,[5],> 100 µM
same,TGI,[6],> 100 µM
same,TGI,[7],> 100 µM
same,TGI,[8],> 100 µM
same,TGI,[9],> 100 µM
same,TGI,[10],> 100 µM
same,TGI,[11],> 100 µM
same,TGI,[12],> 100 µM
same,TGI,[13],> 100 µM
same,TGI,[14],> 100 µM
same,TGI,[15],> 100 µM
same,TGI,[16],> 100 µM
same,TGI,[17],> 100 µM
same,TGI,[18],> 100 µM
same,TGI,[19],> 100 µM
same,TGI,[20],> 100 µM
same,TGI,[21],> 100 µM
same,TGI,[22],> 100 µM
same,TGI,[23],> 100 µM
same,TGI,[24],> 100 µM
same,TGI,[25],> 100 µM
same,TGI,[26],> 100 µM
same,TGI,[27],> 100 µM
same,TGI,[28],> 100 µM
same,TGI,[29],> 100 µM
same,TGI,[30],> 100 µM
same,TGI,[31],> 100 µM
same,TGI,[32],> 100 µM
same,TGI,[33],> 100 µM
same,TGI,[34],> 100 µM
same,TGI,[35],> 100 µM
same,TGI,[36],> 100 µM
same,TGI,[37],> 100 µM
same,TGI,[38],> 100 µM
same,TGI,[39],> 100 µM
same,TGI,[40],> 100 µM
CCc1ccc2c(c1)N(CC(C)CN(C)C)c1ccccc1S2 (stereo not drawn),TGI,[1],12.2 µM
same,TGI,[41],21.8 µM
same,TGI,[2],21.7 µM
same,TGI,[3],15.5 µM
same,TGI,[42],26.5 µM
same,TGI,[4],18.3 µM
same,TGI,[43],4.99 µM
same,TGI,[44],8.47 µM
same,TGI,[45],21.4 µM
same,TGI,[6],24.3 µM
same,TGI,[8],11 µM
same,TGI,[9],17.8 µM
same,TGI,[10],8.66 µM
same,TGI,[11],17.8 µM
same,TGI,[12],15.4 µM
same,TGI,[46],18.6 µM
same,TGI,[47],12.5 µM
same,TGI,[13],15 µM
same,TGI,[14],3.5 µM
same,TGI,[15],16.6 µM
same,TGI,[17],10.3 µM
same,TGI,[19],4.12 µM
same,TGI,[20],8.37 µM
same,TGI,[48],11.5 µM
same,TGI,[49],17.3 µM
same,TGI,[50],8.13 µM
same,TGI,[51],17.4 µM
same,TGI,[21],1.91 µM
same,TGI,[22],25.5 µM
same,TGI,[23],21.8 µM
same,TGI,[52],8.51 µM
same,TGI,[53],7.96 µM
same,TGI,[54],17.8 µM
same,TGI,[24],12.4 µM
same,TGI,[25],17 µM
same,TGI,[26],19.9 µM
same,TGI,[55],21.8 µM
same,TGI,[56],17.1 µM
same,TGI,[57],6.28 µM
same,TGI,[27],10.3 µM
same,TGI,[28],20.5 µM
same,TGI,[58],21.5 µM
same,TGI,[59],24.1 µM
same,TGI,[29],12 µM
same,TGI,[60],5.45 µM
same,TGI,[30],8.1 µM
same,TGI,[31],18.7 µM
same,TGI,[32],19.5 µM
same,TGI,[33],23 µM
same,TGI,[34],9.94 µM
same,TGI,[61],11.4 µM
same,TGI,[36],14.6 µM
same,TGI,[62],10.7 µM
same,TGI,[37],11.4 µM
same,TGI,[38],17.4 µM
same,TGI,[63],7.19 µM
same,TGI,[39],13.1 µM
same,TGI,[40],10.3 µM
